What was measured:
human sirtuin 2 (SIRT2) [1] = target: T1, human sirtuin 2 (SIRT2) (Homo sapiens, UniProt Q8IXJ6); assay: biochemical; set-up: Fluorogenic p2270 (Ac-Glu-Thr-Asp-Lys(Dec)-AMC) trypsin-coupled assay on recombinant human SIRT2, ex 380/em 460 nm; conditions: for inhibition at 10 µM: read-out: Inhibition% ^1/SIRT2-p2270 / @ 10 μM
T1 sequence (Q8IXJ6 2-389): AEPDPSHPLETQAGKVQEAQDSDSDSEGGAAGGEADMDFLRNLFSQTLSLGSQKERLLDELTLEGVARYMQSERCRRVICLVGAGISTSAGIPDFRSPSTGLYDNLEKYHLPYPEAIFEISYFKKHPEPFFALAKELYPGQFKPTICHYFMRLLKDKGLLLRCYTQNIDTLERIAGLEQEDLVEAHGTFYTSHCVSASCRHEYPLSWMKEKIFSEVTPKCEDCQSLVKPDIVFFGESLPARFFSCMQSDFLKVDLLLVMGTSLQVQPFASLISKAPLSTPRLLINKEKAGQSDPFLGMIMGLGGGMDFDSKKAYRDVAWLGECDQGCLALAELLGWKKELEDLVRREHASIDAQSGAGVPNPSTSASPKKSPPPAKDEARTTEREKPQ
Procedure: This study tested the inhibitory activities of the synthesized compounds against recombinant human SIRT2 proteins using a fluorogenic substrate p2270(Ac-Glu-Thr-Asp-Lys(Dec)-AMC)-coupled trypsin assay. The assay buffer is 25 mM Tris–HCl pH 8.0, 150 mM NaCl, and 10% glycerol. The test compounds were added to 60 μL of reaction mixture containing SIRT2 enzymes (0.2 μM), and each compound was prepared in a 3-fold dilution series (300 μM–15 nM) with the final DMSO concentration < 1%. After incubation at 25 °C for 30 min, the reaction started by the addition of the substrate p2270 ([…]) and NAD^+([…]) at 25 °C. After 2 h, 50 μL 3~4 U/μL trypsin and 4 mM nicotinamide were added to terminate the reaction, followed by further incubation for 30 min at 25 °C. The fluorescence intensity was measured using a microplate reader (λex = 380 nm, λem = 460 nm). All determinations were performed in triplicate. The IC50 values were obtained using GraphPad Prism software as described previously. The enzyme activity assays were performed using a fluorogenic-based method, and Ac-Glu-Thr-Asp-Lys(Dec)-AMC, termed p2270, was used as the substrate. The SAR studies with all of the synthesized (5-phenylfuran-2-yl)methanamine derivatives (Table 1 and Table 2) were carried out. The compounds bearing various linkers or different substituents (A moiety) at 3- or 4-position of the [compound left out] of (5-phenylfuran-2-yl)methanamine scaffold (Table 1) were firstly investigated.

human sirtuin 2 (SIRT2) [2] = target: T1, human sirtuin 2 (SIRT2); assay: fluorogenic p2270 trypsin-coupled assay, recombinant human SIRT2; assay type: biochemical; conditions: read-out: Inhibition% ^1/SIRT2-p2270 / @ 100 μM
human sirtuin 2 (SIRT2) [3] = target: T1, human sirtuin 2 (SIRT2); assay: as above; assay type: biochemical

Structure (SMILES) | inhibition at 10 µM (human sirtuin 2 (SIRT2) [1]) [%] | inhibition at 100 µM (human sirtuin 2 (SIRT2) [1]; read-out: Inhibition% ^1/SIRT2-p2270 / @ 100 μM) [%] | inhibition at 100 µM (human sirtuin 2 (SIRT2) [2]) [%] | IC50 (human sirtuin 2 (SIRT2) [3]) [nM]
N#C/C(=C\c1ccc(-c2cc(Cl)ccc2Cl)o1)C(=O)Nc1cccc2ncccc12 [AGK2] | 30 ± 5 | 80 ± 6 |  | 
O=C(NCc1ccc(-c2cc(Cl)ccc2Cl)o1)Nc1cccc2ncccc12 [compound 12, 1-((5-(2,5-Dichlorophenyl)furan-2-yl)methyl)-3-(quinolin-5-yl)urea] | 33 ± 3 |  | 60 ± 3 | 
CCOC(=O)c1ccc(-c2ccc(CNC(=O)Nc3cccnc3)o2)cc1 [compound 17, Ethyl 4-(5-((3-(pyridin-3-yl)ureido)methyl)furan-2-yl)benzoate] |  |  | 50 ± 4 | 
O=C(NCc1ccc(-c2ccc(C(F)(F)F)cc2)o1)Nc1cccnc1 [compound 18, 1-(Pyridin-3-yl)-3-((5-(4-(trifluoromethyl)phenyl)furan-2-yl)methyl)urea] |  |  | 40 ± 5 | 
O=C(NCc1ccc(-c2ccc(C(=O)O)cc2)o1)Nc1cccc2ncccc12 [compound 20, 4-(5-((3-(quinolin-5-yl)ureido)methyl)furan-2-yl)benzoic acid] | 35 ± 3 |  | 63 ± 5 | 
O=C(NCc1ccc(-c2ccc(C(=O)O)cc2)o1)Nc1ccccc1 [compound 21, 4-(5-((3-Phenylureido)methyl)furan-2-yl)benzoic Acid] | 33 ± 3 |  | 46 ± 4 | 
O=C(O)c1ccc(-c2ccc(CNC(=S)Nc3ccccc3)o2)cc1 [compound 22, 4-(5-((3-Phenylthioureido)methyl)furan-2-yl)benzoic Acid] | 23 ± 3 |  | 44 ± 5 | 
O=C(NCc1ccc(-c2ccc(C(=O)O)c(O)c2)o1)Nc1ccccc1 [compound 24, 2-Hydroxy-4-(5-((3-phenylureido)methyl)furan-2-yl)benzoic Acid] |  |  | 43 ± 2 | 
O=C(NCc1ccc(-c2ccc(C(=O)O)cc2)o1)Nc1cccnc1 [compound 25, 4-(5-((3-(Pyridin-3-yl)ureido)methyl)furan-2-yl)benzoic Acid] |  |  |  | 2470
